# Patent US8822430B2 (Gilead Sciences, Inc., priority 2009, dated 2014)
# pEC50: −log10 of the molar value.
# Tested on: HCV 1b RLuc cells (dicistronic genotype 1b Con1 replicon)
# Experiment: Renilla luciferase (RLuc)-based HCV replicon reporter assay
# Assay type: cell-based, HCV genotype 1b
# Details: Hepatitis C virus, 72 h, HCV 1b RLuc replicon, 72 hours; read-out: Activity (antiviral potency [EC50])
# In short: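 HCV 1b RLuc cells carrying a dicistronic genotype 1b Con1 replicon were treated with serially diluted compounds from 10 mM DMSO stocks. After 72 h, cells were lysed and Renilla luciferase activity measured. EC50 was obtained by non-linear regression.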
row,Structure (SMILES),pEC50
1,COC(=O)N[C@@H](C)C(=O)N1CCC[C@H]1c1ncc(-c2ccc(-c3ccc4cc(-c5cnc([C@@H]6[C@H]7CC[C@H](C7)N6C(=O)[C@@H](NC(=O)OC)C(C)C)[nH]5)ccc4c3)cc2)[nH]1,10.47
2,COC(=O)N[C@H](C(=O)N1CCC[C@H]1c1ncc(-c2ccc(-c3ccc(-c4cnc([C@H]5CC6(CCC6)ON5C(=O)[C@@H](NC(=O)OC)C(C)C)[nH]4)cc3)cc2)[nH]1)C(C)C,9.96
3,COC(=O)N[C@H](C(=O)N1CCC[C@H]1c1ncc(-c2ccc3cc(-c4ccc(-c5cnc([C@@H]6CCCN6C(=O)[C@H](NC(=O)OC)C6CCOCC6)[nH]5)cc4)ccc3c2)[nH]1)C(C)C,9.77
4,COC(=O)N[C@H](C(=O)N1CC2(CC2)C[C@H]1c1ncc(-c2ccc(-c3ccc4cc(-c5cnc([C@@H]6[C@H]7CC[C@H](C7)N6C(=O)[C@@H](NC(=O)OC)C(C)C)[nH]5)ccc4c3)cc2)[nH]1)C(C)C,11.12
5,CC[C@H](NC(=O)OC)C(=O)N1CC2(CC2)C[C@H]1c1ncc(-c2ccc3cc(-c4ccc(-c5cnc([C@@H]6[C@H]7CC[C@H](C7)N6C(=O)[C@@H](NC(=O)OC)C(C)C)[nH]5)cc4)ccc3c2)[nH]1,10.74
6,COC(=O)N[C@H](C(=O)N1CCC[C@H]1c1ncc(-c2ccc3c(c2)CCc2cc(-c4cnc([C@@H]5[C@H]6CC[C@H](C6)N5C(=O)[C@@H](NC(=O)OC)C(C)C)[nH]4)ccc2-3)[nH]1)C(C)C,11.06
7,COC(=O)N[C@H]1CCCN(Cc2ncc(-c3ccc(-c4ccc(-c5cnc([C@@H]6CCCN6C(=O)[C@@H](NC(=O)OC)C(C)C)[nH]5)cc4)cc3)[nH]2)C1=O,9.83
8,COC(=O)N[C@H](C(=O)N1CCC[C@H]1c1ncc(-c2ccc3cc(-c4ccc(-c5cnc([C@@H]6C[C@H](CNC(C)=O)CN6C(=O)[C@@H](NC(=O)OC)C(C)C)[nH]5)cc4)ccc3c2)[nH]1)C(C)C,9.86
9,COC(=O)N[C@H](C(=O)N1CCC[C@H]1c1ncc(-c2ccc(-c3ccc(-c4cnc([C@@H]5SCCN5C(=O)[C@@H](NC(=O)OC)C(C)C)[nH]4)cc3)cc2)[nH]1)C(C)C,10.77
10,COCCO[C@H]1C[C@@H](c2ncc(-c3ccc(-c4ccc5cc(-c6cnc([C@@H]7CC8(CC8)CN7C(=O)[C@@H](NC(=O)OC)C(C)C)[nH]6)ccc5c4)cc3)[nH]2)N(C(=O)[C@@H](NC(=O)OC)C(C)C)C1,10.84
11,COC(=O)N[C@H](C(=O)N1CCC[C@H]1c1ncc(C23CCC(c4ccc(-c5cnc([C@@H]6CCCN6C(=O)[C@H](NC(=O)OC)C(C)C)[nH]5)cc4)(CC2)CC3)[nH]1)C(C)C,7.40
12,COC(=O)N[C@H](C(=O)N1CCC[C@H]1c1ncc(-c2ccc(C#Cc3ccc(-c4cnc([C@@H]5CN(C(C)=O)CCN5C(=O)[C@@H](NC(=O)OC)C(C)C)[nH]4)cc3)cc2)[nH]1)C(C)C,9.69
13,COC(=O)N[C@H](C(=O)N1CCC[C@H]1c1ncc(-c2ccc3cc(-c4ccc(-c5cnc([C@@H]6CC(=O)CN6C(=O)[C@@H](NC(=O)OC)C(C)C)[nH]5)cc4)ccc3c2)[nH]1)C(C)C,10.99
14,COC(=O)N[C@H](C(=O)N1CCC[C@H]1c1nc2ccc(-c3ccc4cc(-c5ccc6nc([C@@H]7CCCN7C(=O)[C@@H](NC(=O)OC)C(C)C)[nH]c6c5)ccc4c3)cc2[nH]1)C(C)C,> 11.39
15,COC(=O)N[C@H](C(=O)N1[C@@H]2CC[C@@H](C2)[C@H]1c1ncc(-c2ccc(-c3ccc4cc(-c5cnc([C@@H]6CC7(CC7)CN6C(=O)[C@@H](NC(=O)OC)C6CCOCC6)[nH]5)ccc4c3)cc2)[nH]1)C(C)C,10.87
16,COC(=O)N[C@@H](CCOCC(F)(F)F)C(=O)N1CCC[C@H]1c1ncc(-c2ccc(-c3ccc(-c4cnc([C@@H]5CCCN5C(=O)[C@H](CCOCC(F)(F)F)NC(=O)OC)[nH]4)cc3)cc2)[nH]1,10.61
17,COC(=O)N[C@@H](CCOC(F)F)C(=O)N1CCC[C@H]1c1ncc(-c2ccc(-c3ccc(-c4cnc([C@@H]5CC6(CN5C(=O)[C@@H](NC(=O)OC)C(C)C)OCCO6)[nH]4)cc3)cc2)[nH]1,9.89
18,COC(=O)N[C@H](C(=O)N1CCC[C@H]1c1ncc(-c2ccc(C#Cc3ccc(-c4cnc([C@@H]5CCCN5C(=O)[C@@H](NC(=O)OC)C(C)C)[nH]4)cc3)cc2)[nH]1)C(C)C,10.90
19,COC(=O)N[C@H](C(=O)N1CCC[C@H]1c1ncc(-c2ccc(C#CC#Cc3ccc(-c4cnc([C@@H]5CCCN5C(=O)[C@@H](NC(=O)OC)C(C)C)[nH]4)cc3)cc2)[nH]1)C(C)C,9.42
20,COC(=O)N[C@H](C(=O)N1CCC[C@H]1c1ncc(-c2ccc3c(c2)Sc2cc(-c4cnc([C@@H]5CCCN5C(=O)[C@@H](NC(=O)OC)C(C)C)[nH]4)ccc2S3)[nH]1)C(C)C,9.46
21,COC(=O)N[C@H](C(=O)N1CC2(CC2)C[C@H]1c1ncc(-c2ccc3cc(-c4ccc(-c5cnc([C@@H]6CCCN6C(=O)[C@@H](NC(=O)OC)C(C)OC)[nH]5)cc4)ccc3c2)[nH]1)C(C)C (some centres unmarked),11.13
22,COC(=O)N[C@H](C(=O)N1[C@@H]2CC[C@@H](C2)[C@H]1c1nc2ccc(-c3ccc(-c4ccc(-c5ccc6nc([C@@H]7[C@H]8CC[C@H](C8)N7C(=O)[C@@H](NC(=O)OC)C(C)C)[nH]c6c5)cc4)cc3)cc2[nH]1)C(C)C,9.55

row,Structure (SMILES),pEC50
1,COC(=O)N[C@H](C(=O)N1CCC[C@H]1c1ncc(-c2ccc(-c3ccc(-c4cnc([C@@H]5[C@H]6CC[C@H](C6)N5C(=O)[C@@H](NC(=O)OC)C(C)C)[nH]4)cc3)cc2)[nH]1)C(C)C,11.14
2,COC(=O)NC(C(=O)N1CCC[C@H]1c1ncc(-c2cc3sc(-c4ccc(-c5cnc([C@@H]6CCCN6C(=O)[C@@H](NC(=O)OC)C(C)C)[nH]5)cc4)cc3s2)[nH]1)C(C)C (some centres unmarked),10.89
3,COC(=O)N[C@H](C(=O)N1CC2(CC2)C[C@H]1c1ncc(-c2ccc3c(c2)C2(CC2)c2cc(-c4ccc5nc([C@@H]6[C@H]7CC[C@H](C7)N6C(=O)[C@@H](NC(=O)OC)C(C)C)[nH]c5c4)ccc2-3)[nH]1)C(C)C,11.14
4,COC(=O)N[C@H](C(=O)N1CCC[C@H]1c1ncc(-c2ccc(-c3ccc(-c4cnc([C@@H]5CC[C@H]6CN(C(=O)OC)CC(=O)N65)[nH]4)cc3)cc2)[nH]1)C(C)C,10.18
5,COC(=O)N[C@@H](C)C(=O)N1[C@@H]2CC[C@@H](C2)[C@H]1c1ncc(-c2ccc(-c3ccc4cc(-c5cnc([C@@H]6CC7(CC7)CN6C(=O)[C@@H](NC(=O)OC)C(C)C)[nH]5)ccc4c3)cc2)[nH]1,10.81
6,COC(=O)N[C@@H](CCS(C)(=O)=O)C(=O)N1C[C@@H](C#N)C[C@H]1c1ncc(-c2ccc(-c3ccc4cc(-c5cnc([C@@H]6CC7(CC7)CN6C(=O)[C@@H](NC(=O)OC)C(C)C)[nH]5)ccc4c3)cc2)[nH]1,9.59
7,COC(=O)NC(C(=O)N1CCC[C@H]1c1ncc(-c2ccc(-c3ccc4cc(-c5cnc([C@@H]6CCCN6C(=O)[C@@H](NC(=O)OC)C(C)C)[nH]5)ccc4c3)cc2)[nH]1)c1ccccc1 (some centres unmarked),11.01
8,COC(=O)N[C@H](C(=O)N1CCC[C@H]1c1ncc(-c2ccc3c(c2)COCc2cc(-c4cnc([C@@H]5CCCN5C(=O)[C@@H](NC(=O)OC)C(C)C)[nH]4)ccc2-3)[nH]1)C(C)C,10.49
9,COC(=O)N[C@H](C(=O)N1CCC[C@H]1c1ncc(-c2ccc3c(c2)COc2c-3ccc3cc(-c4cnc([C@@H]5CCCN5C(=O)[C@@H](NC(=O)OC)C5CCOCC5)[nH]4)ccc23)[nH]1)C1CCOCC1,10.38
10,COC(=O)N[C@H](C(=O)N1CCC[C@H]1C(=O)Nc1ccc(CCc2ccc(NC(=O)[C@@H]3CCCN3C(=O)[C@@H](NC(=O)OC)C(C)C)cc2)cc1)C(C)C,9.58
11,COC(=O)N[C@H](C(=O)N1CCC[C@H]1c1nc2ccc(-c3ccc(-c4cnc([C@@H]5[C@H]6CC[C@H](C6)N5C(=O)[C@@H](NC(=O)OC)C(C)C)[nH]4)cc3)cc2[nH]1)C(C)C,10.26
12,COC(=O)N[C@H](C(=O)N1CCC[C@H]1c1ncc(C23CCC(c4cccc(-c5cnc([C@@H]6CCCN6C(=O)[C@H](NC(=O)OC)C(C)C)[nH]5)c4)(CC2)CC3)[nH]1)C(C)C,≤ 7.35
13,COC(=O)N[C@H](C(=O)N1CCC[C@H]1c1ncc(-c2ccc3cc(-c4ccc(-c5cnc([C@@H]6CCCN6C(=O)[C@H](O)c6ccccc6)[nH]5)cc4)ccc3c2)[nH]1)C(C)C,11.01
14,COC(=O)N[C@H](C(=O)N1CCC[C@H]1c1ncc(-c2ccc3cc(-c4ccc(-c5cnc([C@@H]6C[C@@H](c7ccccc7)CN6C(=O)[C@@H](NC(=O)OC)C(C)C)[nH]5)cc4)ccc3c2)[nH]1)C(C)C,10.14
15,COC(=O)N[C@H](C(=O)N1CCC[C@H]1c1ncc(-c2ccc(-c3ccc(-c4cnc([C@@H]5CN(C(=O)OC(C)(C)C)CN5C(=O)[C@@H](NC(=O)OC)C(C)C)[nH]4)cc3)cc2)[nH]1)C(C)C,11.30
16,COC(=O)N[C@@H](CCC(F)(F)F)C(=O)N1CCC[C@H]1c1ncc(-c2ccc(-c3ccc(-c4cnc([C@@H]5CCCN5C(=O)[C@H](CCC(F)(F)F)NC(=O)OC)[nH]4)cc3)cc2)[nH]1,10.20
17,COC(=O)N[C@H](C(=O)N1CCC[C@H]1c1ncc(-c2ccc(-c3cc4ccc(-c5cnc([C@@H]6CCCN6C(=O)[C@@H](NC(=O)OC)C(C)C)[nH]5)cc4s3)cc2)[nH]1)C(C)C,11.03
18,COC(=O)N[C@H](C(=O)N1CCC[C@H]1c1ncc(-c2ccc(-c3ccc(-c4cnc([C@@H]5CN(C(=O)OC)CN5C(=O)[C@@H](NC(=O)OC)C(C)C)[nH]4)cc3)cc2)[nH]1)C(C)C,10.52
19,COC(=O)N[C@H](C(=O)N1CCC[C@H]1c1ncc(-c2ccc3c(c2)C(C)(C)c2cc(-c4cnc([C@@H]5CCCN5C(=O)[C@@H](NC(=O)OC)C(C)C)[nH]4)ccc2-3)[nH]1)C(C)C,10.99
20,COC(=O)N[C@H](C(=O)N1[C@@H]2CC[C@@H](C2)[C@H]1c1ncc(-c2ccc3cc(-c4ccc(-c5cnc([C@@H]6CC7(CC7)CN6C(=O)[C@@H](NC(=O)OC)C6CC6)[nH]5)cc4)ccc3c2)[nH]1)C(C)C,9.54
21,CNC(=O)O[C@H](C(=O)N1CCC[C@H]1c1ncc(-c2ccc(C#Cc3ccc(-c4cnc([C@@H]5CCCN5C(=O)[C@@H](NC(=O)OC)C(C)C)[nH]4)cc3)cc2)[nH]1)C(C)C,9.90
22,CNC(=O)N1CCN(C(=O)[C@@H](NC(=O)OC)C(C)C)[C@H](c2ncc(-c3ccc(C#Cc4ccc(-c5cnc([C@@H]6CCCN6C(=O)[C@@H](NC(=O)OC)C(C)C)[nH]5)cc4)cc3)[nH]2)C1,8.98
